Assay results published in article PMC3235725 (Biochemistry, 2011).
Like-named read-outs stand apart in the source and are kept apart here.

Tests used:
[1] = target: BMP(wt), heme domain of P450BM-3 (Priestia megaterium, UniProt P14779); format: binding, Bacillus megaterium
[2] = target: BMP(A328V), heme domain of P450BM-3 A328V mutant (Priestia megaterium, UniProt P14779, A329V); assay: Substrate dissociation constants by UV-vis spectral titration, A328V heme domain; format: binding, Bacillus megaterium; details: for Fold Enhancement of substrate affinity, A328V versus wild type: ratio of BMP(wt) KD to BMP(A328V) KD
[3] = target: BM-3(wt), wild-type P450BM-3 (Priestia megaterium, UniProt P14779); assay: Steady-state turnover, products quantified by GC-MS, wild-type holoenzyme; format: biochemical, Bacillus megaterium; details: 50 nM enzyme, 250 μM substrate, 50 mM KPi pH 7.4, 25°C
[4] = target: BM-3(A328V), P450BM-3(A328V) (Priestia megaterium, UniProt P14779, A329V); assay: Steady-state turnover, products quantified by GC-MS, A328V holoenzyme; format: biochemical, Bacillus megaterium; details: 50 nM enzyme, 250 μM substrate; for BM-3(A328V) turnover rate: 50 mM KPi pH 7.4, 25°C, GC-MS
[5] = target: P450BM-3 wild-type (Priestia megaterium, UniProt P14779); assay: Regiospecificity of hydroxylation, product distribution by GC/MS, wild type; format: biochemical, Bacillus megaterium; details: wild-type enzyme, 500 μM substrate, 50 nM enzyme, 250 μM NADPH, run to completion
[6] = target: P450BM-3(A328V) (Priestia megaterium, UniProt P14779, A329V); assay: Regiospecificity of hydroxylation, product distribution by GC/MS, A328V; format: biochemical, Bacillus megaterium; details: A328V mutant, 500 μM substrate, 50 nM enzyme, 250 μM NADPH, run to completion
[7] = test system: BM-3(wt); details: 2% (v/v) DMSO, 200 μM substrate, 500 nM enzyme; cited from earlier work
[8] = test system: BM-3(A328V); details: 2% (v/v) DMSO, 200 μM substrate, 500 nM enzyme; cited from earlier work
[9] = read-out: BMP(A328V) Dissociation Constant, 50 mM KPi pH 7.4, room temperature, 1 μM P450, UV-vis titration

Sequence of BM-3(A328V), P450BM-3(A328V) (P14779 whole entry A329V): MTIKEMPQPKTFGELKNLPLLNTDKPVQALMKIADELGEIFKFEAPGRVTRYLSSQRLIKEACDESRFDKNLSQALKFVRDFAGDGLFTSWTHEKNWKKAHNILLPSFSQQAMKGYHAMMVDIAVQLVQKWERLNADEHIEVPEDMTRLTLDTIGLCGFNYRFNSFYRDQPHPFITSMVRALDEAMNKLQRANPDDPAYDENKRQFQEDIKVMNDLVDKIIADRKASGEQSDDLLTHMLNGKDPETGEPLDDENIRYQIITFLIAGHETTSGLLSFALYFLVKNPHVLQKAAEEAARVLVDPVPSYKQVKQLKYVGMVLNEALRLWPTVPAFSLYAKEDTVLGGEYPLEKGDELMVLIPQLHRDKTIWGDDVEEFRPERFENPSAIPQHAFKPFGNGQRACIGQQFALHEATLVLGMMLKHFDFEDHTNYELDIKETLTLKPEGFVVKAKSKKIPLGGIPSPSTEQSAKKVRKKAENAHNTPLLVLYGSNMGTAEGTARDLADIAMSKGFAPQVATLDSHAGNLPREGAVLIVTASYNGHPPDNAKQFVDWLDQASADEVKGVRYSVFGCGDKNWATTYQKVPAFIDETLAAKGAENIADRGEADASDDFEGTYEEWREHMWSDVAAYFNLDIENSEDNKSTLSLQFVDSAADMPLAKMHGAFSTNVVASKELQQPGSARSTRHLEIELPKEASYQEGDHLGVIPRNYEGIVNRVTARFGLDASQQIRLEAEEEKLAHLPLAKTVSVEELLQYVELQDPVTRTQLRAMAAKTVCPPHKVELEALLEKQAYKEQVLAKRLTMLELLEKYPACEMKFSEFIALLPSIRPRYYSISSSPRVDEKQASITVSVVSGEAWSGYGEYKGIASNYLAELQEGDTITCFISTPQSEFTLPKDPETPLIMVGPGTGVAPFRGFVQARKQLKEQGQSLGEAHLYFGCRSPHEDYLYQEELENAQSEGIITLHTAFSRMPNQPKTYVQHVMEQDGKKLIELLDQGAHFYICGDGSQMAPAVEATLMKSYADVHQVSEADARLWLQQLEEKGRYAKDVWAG
Sequence of BMP(A328V), heme domain of P450BM-3 A328V mutant (P14779 2-472 A329V): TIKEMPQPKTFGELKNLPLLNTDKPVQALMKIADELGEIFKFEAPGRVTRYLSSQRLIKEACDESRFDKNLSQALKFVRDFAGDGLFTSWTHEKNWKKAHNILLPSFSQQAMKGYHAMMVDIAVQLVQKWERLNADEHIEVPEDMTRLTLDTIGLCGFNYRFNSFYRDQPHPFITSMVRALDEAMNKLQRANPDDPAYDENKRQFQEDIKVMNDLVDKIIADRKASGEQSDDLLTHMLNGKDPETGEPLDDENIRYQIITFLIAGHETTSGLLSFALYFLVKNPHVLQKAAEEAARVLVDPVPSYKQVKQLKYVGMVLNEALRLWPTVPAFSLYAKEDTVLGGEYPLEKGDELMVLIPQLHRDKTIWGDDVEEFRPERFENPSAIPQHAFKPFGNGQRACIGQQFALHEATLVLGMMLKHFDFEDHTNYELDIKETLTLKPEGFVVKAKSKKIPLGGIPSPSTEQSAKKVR
Sequence of BM-3(wt), wild-type P450BM-3 (P14779 whole entry): as the sequence (P14779 whole entry A329V) above, with V329A counted along it
Sequence of P450BM-3(A328V) (P14779 whole entry A329V): as the sequence (P14779 whole entry A329V) above
Sequence of BMP(wt), heme domain of P450BM-3 (P14779 2-472): as the sequence (P14779 2-472 A329V) above, with V328A counted along it
Sequence of P450BM-3 wild-type (P14779 whole entry): as the sequence (P14779 whole entry A329V) above, with V329A counted along it

| Structure (SMILES) | Kd [1] [nM] | Kd [2] [nM] | Fold Enhancement of substrate affinity, A328V versus wild type [2] | BM-3(wt) turnover rate [3] [μmol/min/μmol] | Fold Enhancement of turnover (rate A328V divided by rate wild type) [4] | BM-3(A328V) turnover rate [4] [μmol/min/μmol] | ω-2 hydroxy product, percent of total oxidation products [5] [%] | ω-1 hydroxy product, percent of total oxidation products [6] [%] | Kd [2, 9] [nM] | BM-3(wt) turnover rate [7] [μmol/min/μmol] | BM-3(A328V) turnover rate [8] [μmol/min/μmol] |
| --- | --- | --- | --- | --- | --- | --- | --- | --- | --- | --- | --- |
| CCCCCCCCCCCCCCCC(=O)O [Palmitate, palmitic acid] | 1300 ± 170 | 160 ± 20 | 8.1 | 1480 ± 35 | 2.3 | 3355 ± 95 | 46 | 72 |  |  |  |
| CCCCCCCCCCCCCCCC(=O)NCC(=O)O [PalmGly, N-palmitoylglycine] |  |  | 7.1 | 1875 ± 30 | 2.9 | 5500 ± 600 |  |  | 45 ± 14 |  |  |
| CCCCCCCCCCCCCCCC(=O)N[C@@H](CC(C)C)C(=O)O [PalmLeu] |  |  |  | 1155 ± 20 | 3.4 | 3900 ± 320 |  |  | < 30 |  |  |
| CC(=O)CC/C=C(/C)CCC=C(C)C [Nerylacetone] |  |  |  |  |  |  |  |  |  | 155 ± 7 | 338 ± 10 |
| CCCCCCCCCCCCCCCC(=O)N[C@@H](CCSC)C(=O)O [PalmMet, N-palmitoyl-L-methionine] |  |  |  | 1690 ± 75 | 2.6 | 4400 ± 145 |  |  | < 30 |  |  |
| CCCCCCCCCCCCCCCC(=O)N[C@@H](CCC(N)=O)C(=O)O [PalmGln, N-palmitoyl-L-glutamine] |  |  | 2.7 | 610 ± 25 | 7.4 | 4500 ± 500 |  |  | 74 ± 5 |  |  |
| CCCCCCCCCCCCCCCC(=O)N[C@@H](CCC(=O)O)C(=O)O [PalmGlu, N-palmitoyl-L-glutamate] |  |  | 9.0 | 485 ± 15 | 8.2 | 3960 ± 280 |  |  | 410 ± 60 |  |  |
